Laboratory results published in PMC10214534, “Enzymatic Fluoromethylation Enabled by the S-Adenosylmethionine Analog Te-Adenosyl-L-(fluoromethyl)homotellurocysteine” (ACS Central Science, 2023).

Tests used:
Type in all cases: biochemical
[1] = target: T1, TPMT (Homo sapiens, UniProt P51580); experiment: methyl transfer kinetics; settings: methyl donor; thiol co-substrate as in Table 1
T1 construct: construct only in supplement
T1 sequence (P51580 1-245): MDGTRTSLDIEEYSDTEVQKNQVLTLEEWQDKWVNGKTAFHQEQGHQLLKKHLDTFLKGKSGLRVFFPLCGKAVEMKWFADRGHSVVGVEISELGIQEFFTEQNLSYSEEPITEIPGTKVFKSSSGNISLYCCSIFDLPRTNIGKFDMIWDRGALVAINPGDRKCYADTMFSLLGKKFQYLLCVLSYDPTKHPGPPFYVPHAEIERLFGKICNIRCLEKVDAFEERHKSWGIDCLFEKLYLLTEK

[2] = target: T1, TPMT; experiment: fluoromethyl transfer kinetics; settings: fluoromethyl donor; thiol co-substrate as in Table 1
[3] = target: T2, CFA synthase (Escherichia coli, UniProt P0A9H7); experiment: turnover, LC-MS/MS and […]-NMR; settings: fluoromethyl donor; co-substrate dOPG
T2 construct: construct only in supplement
T2 sequence (P0A9H7 2-382): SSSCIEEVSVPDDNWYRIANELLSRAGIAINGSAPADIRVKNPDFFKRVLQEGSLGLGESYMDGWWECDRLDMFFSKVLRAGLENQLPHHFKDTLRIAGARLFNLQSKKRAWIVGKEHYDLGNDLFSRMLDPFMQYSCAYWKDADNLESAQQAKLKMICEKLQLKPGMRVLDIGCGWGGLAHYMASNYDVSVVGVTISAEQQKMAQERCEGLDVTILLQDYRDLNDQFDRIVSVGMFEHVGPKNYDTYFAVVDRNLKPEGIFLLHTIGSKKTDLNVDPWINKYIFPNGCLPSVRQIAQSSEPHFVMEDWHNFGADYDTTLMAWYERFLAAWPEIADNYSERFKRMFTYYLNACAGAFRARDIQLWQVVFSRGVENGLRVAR

Row | Structure (SMILES) | Km [1] | Km [2] | turnover, LC-MS/MS and 19F-NMR [3]
1 | C[S+](CC[C@H](N)C(=O)O)C[C@H]1O[C@@H](n2cnc3c(N)ncnc32)[C@H](O)[C@@H]1O (stereo partly drawn) [SAM] | the Km for FMeTeSAM is nearly the same as that for SAM |  | 
2 | Nc1ncnc2c1ncn2[C@@H]1O[C@H](C[Te+](CF)CC[C@H](N)C(=O)O)[C@@H](O)[C@H]1O [FMeTeSAM] |  | the Km for FMeTeSAM is nearly the same as that for SAM | E. coli CFA synthase can use FMeTeSAM to catalyze cyclopropanation
